These results are taken from US8436039B2, “Inhibitors of the ATB(0,+) transporter and uses thereof” (Georgia Health Sciences University Research Institute, Inc., priority 2008, dated 2013).

For assay [1], the target named is T1, mouse ATB^0,+ (Mus musculus, UniProt Q9JMA9).
T1 sequence (Q9JMA9 1-638): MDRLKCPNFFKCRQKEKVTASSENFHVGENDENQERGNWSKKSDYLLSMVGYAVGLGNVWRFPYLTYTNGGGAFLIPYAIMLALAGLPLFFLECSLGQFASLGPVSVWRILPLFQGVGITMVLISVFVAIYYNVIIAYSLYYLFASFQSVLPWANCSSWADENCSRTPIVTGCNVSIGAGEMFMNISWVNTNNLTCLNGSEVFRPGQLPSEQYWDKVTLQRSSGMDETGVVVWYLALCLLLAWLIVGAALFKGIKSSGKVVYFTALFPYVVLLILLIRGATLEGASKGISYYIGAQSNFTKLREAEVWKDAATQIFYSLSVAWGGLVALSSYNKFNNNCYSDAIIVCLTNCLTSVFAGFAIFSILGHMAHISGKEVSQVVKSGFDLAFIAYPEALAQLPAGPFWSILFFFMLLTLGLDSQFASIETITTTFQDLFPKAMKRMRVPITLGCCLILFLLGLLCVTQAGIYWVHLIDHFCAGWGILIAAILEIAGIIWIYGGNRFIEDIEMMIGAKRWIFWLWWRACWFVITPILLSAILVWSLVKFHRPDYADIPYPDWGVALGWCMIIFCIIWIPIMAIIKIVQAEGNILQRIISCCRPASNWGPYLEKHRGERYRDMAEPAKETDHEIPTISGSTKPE
Put plainly: Substrate-induced inward currents in X. laevis oocytes expressing mouse ATB^0,+ (two-microelectrode voltage clamp). The class given is cell-based. As to conditions: saturation kinetics; NaCl; voltage clamp. As to the method:
(§1) Capped cRNA from the cloned mouse or human ATB^0,+ cDNA was synthesized using the mMESSAGE mMACHTNE kit (Ambion, Austin, Tex., U.S.A.). Mature oocytes (stage IV or V) from X. laevis were injected with 50 ng of cRNA. Uninjected oocytes served as controls. The oocytes were used for electrophysiological studies 3-6 days after cRNA injection. Electrophysiological studies were performed by the two-microelectrode voltage-clamp method (Nakanishi et al., 2001, J. Physiol. 532, 297-304). Oocytes were superfused with an NaCl-containing buffer (100 mM NaCl, 2 mM KCl, 1 mM MgCl2, 1 mM CaCl2, 3 mM Hepes, 3 mM Mes and 3 mM Tris, pH 7.5), followed by the same buffer containing tryptophan derivatives. The membrane potential was clamped at −50 mV. The differences between the steady-state currents measured in the presence and absence of substrates were considered as the substrate-induced currents. In the analysis of the saturation kinetics of substrate-induced currents, the kinetic parameter K0.5 (i.e. substrate concentration necessary for induction of half-maximal current) was calculated by fitting the values of the substrate-induced currents to the Michaelis-Menten equation. The Na^+ and Cl^− activation kinetics of substrate-induced currents were analysed by measuring the substrate-specific currents in the presence of increasing concentrations of Na^+ (concentration of Cl^− kept constant at 100 mM) or in the presence of increasing concentrations of Cl^− (concentration of Na^+ kept constant at 100 mM). In these experiments, the composition of the superfusion buffer was modified to contain 2 mM potassium gluconate, 1 mM MgSO4 and 1 mM calcium gluconate in place of KCl, MgCl2 and CaCl2 respectively. The data from these experiments were analysed by the Hill equation to determine the Hill coefficient (h; number of Na^+ and Cl^− ions involved in the activation process). The kinetic parameters were determined by using the commercially available computer program Sigma Plot, version 6.0 (SPSS, Chicago, Ill., U.S.A.). Uninjected oocytes were used to determine the currents induced by tryptophan derivatives due to entry via transporters that may be constitutively expressed in the oocytes. At a concentration of 2.5 mM, the currents induced by these compounds were in the range of 0-3 nA in uninjected oocytes. These currents were less than 2% of the corresponding currents induced in ATB^0,+ cRNA-injected oocytes. Therefore the endogenous currents associated with the constitutively expressed transporters were not considered in the analysis of kinetic parameters of ATB^0,+ transport activity.
The above studies with the mammalian cell expression system have focused on the interaction of 1-methyltryptophan and other tryptophan derivatives with ATB^0,+ by examining the effects of these compounds on the transporter-mediated glycine uptake. These studies have shown convincingly that 1-methyltryptophan interacts with ATB^0,+, with the L-isomer having much higher affinity for the transporter than the D-isomer. However, these studies have not shown whether or not 1-methyltryptophan is actually a transportable substrate for ATB^0,+. It is possible that 1-methyltryptophan inhibits ATB^0,+-mediated glycine uptake simply by blocking the interaction of glycine with the substrate-binding site of the transporter, rather than by actually competing with glycine for the transport process. […] We wanted to know whether 1-methyltryptophan can actually be transported by ATB^0,+. For this, we used the X. laevis oocyte expression system. Since the transport process mediated by ATB^0,+ is electrogenic, exposure of ATB^0,+-expressing oocytes to transportable substrates will induce an inward current in an Na^+- and Cl^−-dependent manner. Exposure of the same oocytes to blockers will interfere with currents induced by transportable substrates, but will not induce currents by themselves. […]

The target of assay [2] is T1, mouse ATB^0,+. Put plainly: Inhibition of ATB^0,+-mediated glycine uptake in HRPE cells expressing cloned mouse ATB^0,+. The conditions noted are these: glycine 10 μM; inhibitor 1 mM; 30 min; NaCl; HRPE cells. The class given is cell-based.
Assay [3] deals with T2, human ATB^0,+ (Homo sapiens, UniProt Q9UN76).
T2 construct: The human ATB^0,+ cDNA was cloned from an MCF7 cell (a human mammary epithelial cancer cell line) cDNA library; expressed in transfected cells; host or cells: Xenopus laevis oocytes injected with 50 ng capped cRNA
T2 sequence (Q9UN76 1-642): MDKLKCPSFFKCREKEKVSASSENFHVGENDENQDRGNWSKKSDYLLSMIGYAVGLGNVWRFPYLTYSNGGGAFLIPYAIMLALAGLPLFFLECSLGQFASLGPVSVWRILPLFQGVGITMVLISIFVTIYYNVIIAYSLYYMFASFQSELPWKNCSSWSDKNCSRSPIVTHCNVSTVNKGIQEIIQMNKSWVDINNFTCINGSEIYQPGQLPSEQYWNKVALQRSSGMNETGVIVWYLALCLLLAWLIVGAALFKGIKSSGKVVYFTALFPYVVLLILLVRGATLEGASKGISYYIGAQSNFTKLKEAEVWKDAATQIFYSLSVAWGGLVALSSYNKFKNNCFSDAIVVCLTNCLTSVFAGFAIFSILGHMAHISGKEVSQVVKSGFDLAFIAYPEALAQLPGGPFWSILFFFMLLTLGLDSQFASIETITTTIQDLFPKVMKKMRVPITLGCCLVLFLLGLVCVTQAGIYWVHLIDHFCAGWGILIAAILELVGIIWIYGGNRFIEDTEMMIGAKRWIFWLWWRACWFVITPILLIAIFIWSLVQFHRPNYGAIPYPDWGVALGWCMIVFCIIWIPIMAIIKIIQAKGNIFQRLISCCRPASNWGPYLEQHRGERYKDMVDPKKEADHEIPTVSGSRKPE
As to the kind of experiment: L-tryptophan-induced inward currents in X. laevis oocytes expressing human ATB^0,+. The assay is classed as cell-based. As to conditions: 20 μM L-tryptophan (sub-saturating). As for the experimental part:
as §1, with “Uninjected oocytes were used to determine the currents induced by tryptophan derivatives due to entry via transporters that may be constitutively expressed in the oocytes. At a concentration of 2.5 mM, the currents induced by these compounds were in the range of 0-3 nA in uninjected oocytes. These currents were less than 2% of the corresponding currents induced in ATB^0,+ cRNA-injected oocytes. Therefore the endogenous currents associated with the constitutively expressed transporters were not considered in the analysis of kinetic parameters of ATB^0,+ transport activity.” left out

Assay [4] relates to HCT116 and LS174T cells. Put plainly: mTOR pathway: phosphorylation of S6 protein and S6 kinase in colon cancer cell lines. The assay is classed as cell-based, human. The conditions noted are these: 24 h exposure. As to the method:
(§2) The mTOR pathway plays a critical role in nutrient signaling in mammalian cells (Wang and Proud, 2006, Physiology (Bethesda) 21: 362-369). Amino acid starvation leads to specific changes in this pathway. We sought evidence for amino acid starvation in ATB^0,+-positive colon cancer cell lines when exposed to α-methyl-L-tryptophan (α-MLT) (250 μM). […] These changes were also accompanied with cell cycle arrest in cancer cell lines (FIG. 16). In the normal cell line CCD841, there was no difference between control and α-MLT-treated cells in terms of percent of cells in difference cell cycle stages. […] The phosphorylation pattern observed in the two cancer cell lines is a hallmark of changes in mTOR pathway in response to amino acid deprivation. Autophagy (self-cannabilism) is another cellular process that is induced when cells undergo amino acid deprivation (Eisenberg-Lerner and Kimchi, 2009, Apoptosis 14: 376-391). To survive in the absence of exogenous essential amino acids during amino acid deprivation, cells engage in autophagic degradation of intracellular macromolecules and organelles as a source of these amino acids. Therefore, we investigated the process of autophagy in LS174T cells with and without exposure to α-MLT for 24 hours. For this, we analyzed the distribution of LC-3 protein. […] Apoptosis was quantified by FACS analysis.

Assay [5] relates to CCD841 cells. Put plainly: Autophagy: immunofluorescent localization of LC-3 in normal colon cells. The class given is cell-based, human. The conditions noted are these: absence or presence of α-MLT.
Assay [6] concerns CCD841 cells. Put plainly: mTOR pathway: phosphorylation of S6 protein and S6 kinase in normal colon cell line. The assay is classed as cell-based, human. As to conditions: 24 h exposure. As for the experimental part:
as §2

Assay [7] relates to LS174T cells. Put plainly: Autophagy: immunofluorescent localization of LC-3 in colon cancer cells. The assay is classed as cell-based, human. The conditions noted are these: 24 hours exposure. As to the method:
as §2

Assay [8] has as its system HCT116 and LS174T cells. Put plainly: Apoptosis (sub-G1 cells, FACS) in colon cancer cell lines. The assay is classed as cell-based, human. The conditions noted are these: 72 hours. As for the experimental part:
as §2

Assay [9] deals with HCT116 and LS174T cells. As to the kind of experiment: Amino acid starvation markers: ASNS and CHOP gene induction in ATB^0,+-positive colon cancer cell lines. The conditions noted are these: 250 μM; 24 hour exposure. The class given is cell-based, human. As to the method:
as §2

Assay [10] relates to HCT116 and LS174T cells. As to the kind of experiment: Cell cycle analysis in colon cancer cell lines. The assay is classed as cell-based, human. The conditions noted are these: 250 μM; 24 hour. As to the method:
as §2

In assay [11] the target is T2, human ATB^0,+. Put plainly: Block of inward currents induced by amino acid mixture simulating plasma in X. laevis oocytes expressing human ATB^0,+. The class given is cell-based. As for the experimental part:
as §1
These studies with α-methyl-DL-tryptophan as a blocker of ATB^0,+ were carried out with L-tryptophan at sub-saturating concentrations. […] Therefore, using the Xenopus oocyte heterologous expression system, we monitored the transport activity of human ATB^0,+ in the presence of an amino acid mixture consisting of 18 different amino acids, each at its respective physiological concentration found in plasma (Glew et al., 2004, Clin. Chim. Acta 342, 179-185) (Table 1). Inward currents were detected under these conditions in oocytes expressing human ATB^0,+. […] We then monitored the ability of α-methyl-DL-tryptophan to block the inward currents induced by the same mixture of amino acids in oocytes expressing human ATB^0,+ (FIG. 4B). […]

Assay [12] deals with CCD841 cells. As to the kind of experiment: Cell cycle analysis in normal colon cell line. The conditions noted are these: 250 μM; 24 hour. The class given is cell-based, human. As for the experimental part: as §2

Structures are written as SMILES.

Regarding `N[C@@H](Cc1c[nH]c2ccccc12)C(=O)O` [L-tryptophan], in assay [1], the “Michaelis constant (K0.5) of substrate-induced currents” value turned out to be 26 ± 3 µM. The “inhibition of ATB^0,+-specific glycine uptake” value in [2] was “inhibited”. Moreover, the “inward currents induced by L-tryptophan” value in assay [3] was about 30 nA.

In the case of `C[C@](N)(Cc1c[nH]c2ccccc12)C(=O)O` [α-methyl-L-tryptophan, α-Methyl-L-Tryptophan], the “phosphorylation of S6 protein and S6 kinase” value in [4] is listed as “decreased phosphorylation”. Besides, in assay [5], the autophagy result is reported as “did not undergo autophagy”. For the same compound, in assay [6], the “phosphorylation of S6 protein and S6 kinase” value is on record as “not in CCD841 cells”. Besides, the “punctate fluorescent signals for LC-3 (autophagy)” value in assay [7] is “showed clear evidence of such signals”. Also, the “percent of apoptotic cells (cells in sub-G1 phase)” value in assay [8] was “increased the percent of apoptotic cells”. Further, the “induction of ASNS and CHOP genes” value in assay [9] is listed as “induced”. Also, in assay [10], the “percent of cells in G1 phase” value was “increased significantly”; the “percent of cells in S and G2/M phases” value is recorded as “decreased”. Further, in assay [11] (18 amino acids at normal plasma concentrations, read-out: concentration necessary to elicit 50% of maximal inhibition (IC50) of amino acid mixture-induced currents), the IC50 was 18 ± 5 µM. The “IC50 of L-isomer relative to DL-form (times less)” value in [11] (amino acid mixture simulating plasma) is on record as 14 times. The “percent of cells in different cell cycle stages, control versus treated” value in assay [12] is recorded as “no difference”.
